# ChEMBL document CHEMBL1201862, “PubChem BioAssay data set” (2004)
#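 Exposure lasted 48 hours, with cells grown in 96-well plates and compounds tested at five concentrations. GI50 marks 50% less growth.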 The source made the active and inactive calls. No stated cut-off is given here; in the data, active = GI50 up to about 1.1 µM and inactive = higher.
# What was measured:
# Assay in all cases: NCI anticancer screen, dose series, 48 h
# U-251 = tested on: U-251
# MDA-MB-435 = tested on: MDA-MB-435
# TK-10 = tested on: TK-10
# KM12 = tested on: KM12
# Malme-3M = tested on: Malme-3M
# T47D = tested on: T47D
# MDA-N = tested on: MDA-N
# A549 = tested on: A549
# SN12C = tested on: SN12C
# NCI-H23 = tested on: NCI-H23
# A498 = tested on: A498
# K562 = tested on: K562
# DU-145 = tested on: DU-145
# SK-MEL-5 = tested on: SK-MEL-5
# OVCAR-3 = tested on: OVCAR-3
# Hs-578T = tested on: Hs-578T
# NCI-H226 = tested on: NCI-H226
# NCI-H522 = tested on: NCI-H522
# HL-60 = tested on: HL-60
SMILES,GI50 (U-251),GI50 (MDA-MB-435),GI50 (TK-10),GI50 (KM12),GI50 (Malme-3M),GI50 (T47D),GI50 (MDA-N),GI50 (A549),GI50 (SN12C),GI50 (NCI-H23),GI50 (A498),GI50 (K562),GI50 (DU-145),GI50 (SK-MEL-5),GI50 (OVCAR-3),GI50 (Hs-578T),GI50 (NCI-H226),GI50 (NCI-H522),GI50 (HL-60)
Cc1ccc(Cc2n[nH]c(=O)n2N2C(=O)c3ccccc3C2=O)cc1,> 100 µM (inactive),> 100 µM (inactive),> 100 µM (inactive),> 100 µM (inactive),> 100 µM (inactive),> 100 µM (inactive),> 100 µM (inactive),> 100 µM (inactive),> 100 µM (inactive),> 100 µM (inactive),> 100 µM (inactive),> 100 µM (inactive),> 100 µM (inactive),> 100 µM (inactive),> 100 µM (inactive),> 100 µM (inactive),> 100 µM (inactive),–,–
COC(=O)C1Cc2c([nH]c3ccccc23)C(c2cccc(O)c2)N1 (configuration not stated),35 µM (inactive),18.2 µM (inactive),> 100 µM (inactive),32.1 µM (inactive),–,41.5 µM (inactive),19.5 µM (inactive),41 µM (inactive),40.9 µM (inactive),29.8 µM (inactive),42.9 µM (inactive),33.1 µM (inactive),23.4 µM (inactive),40.9 µM (inactive),42 µM (inactive),37.4 µM (inactive),40.7 µM (inactive),33.6 µM (inactive),22.2 µM (inactive)
CCN(CC)c1nc(NC2CCCCC2)c2nc(N(CC)CC)nc(NC3CCCCC3)c2n1,> 100 µM (inactive),> 100 µM (inactive),> 100 µM (inactive),> 100 µM (inactive),> 100 µM (inactive),> 100 µM (inactive),> 100 µM (inactive),> 100 µM (inactive),> 100 µM (inactive),> 100 µM (inactive),> 100 µM (inactive),> 100 µM (inactive),> 100 µM (inactive),> 100 µM (inactive),> 100 µM (inactive),> 100 µM (inactive),> 100 µM (inactive),–,> 100 µM (inactive)
CC(=O)Oc1cc2c(n(C)c1=O)-c1ccccc1C2,75.9 µM (inactive),> 100 µM (inactive),51.8 µM (inactive),> 100 µM (inactive),31.8 µM (inactive),> 100 µM (inactive),> 100 µM (inactive),63.7 µM (inactive),> 100 µM (inactive),75.5 µM (inactive),97.7 µM (inactive),> 100 µM (inactive),> 100 µM (inactive),85.3 µM (inactive),33.3 µM (inactive),65 µM (inactive),> 100 µM (inactive),15.9 µM (inactive),–
Cc1cc(-c2nc3c(O)cccc3s2)ccc1N,29.6 µM (inactive),17.7 µM (inactive),26.8 µM (inactive),23.3 µM (inactive),–,74.5 µM (inactive),25.4 µM (inactive),19.1 µM (inactive),27.2 µM (inactive),26.9 µM (inactive),–,39.2 µM (inactive),> 100 µM (inactive),33.2 µM (inactive),26.5 µM (inactive),18.2 µM (inactive),31.6 µM (inactive),17.2 µM (inactive),19.3 µM (inactive)
N#Cc1c(-c2ccccc2)nc(-c2ccccc2)sc1=S,> 100 µM (inactive),> 100 µM (inactive),> 100 µM (inactive),> 100 µM (inactive),> 100 µM (inactive),> 100 µM (inactive),> 100 µM (inactive),> 100 µM (inactive),> 100 µM (inactive),> 100 µM (inactive),> 100 µM (inactive),> 100 µM (inactive),> 100 µM (inactive),> 100 µM (inactive),> 100 µM (inactive),> 100 µM (inactive),> 100 µM (inactive),–,> 100 µM (inactive)
Cc1ccc(SCC(OCn2cnc3c(Cl)nc(N)nc32)[C@H](C)F)cc1 (some centres not stated),98.4 µM (inactive),> 100 µM (inactive),> 100 µM (inactive),81.8 µM (inactive),88.9 µM (inactive),71.1 µM (inactive),> 100 µM (inactive),69.5 µM (inactive),43.7 µM (inactive),50.9 µM (inactive),–,–,> 100 µM (inactive),18.1 µM (inactive),> 100 µM (inactive),> 100 µM (inactive),> 100 µM (inactive),13.8 µM (inactive),28.3 µM (inactive)
CCOC(=O)C1(Cc2ccccc2)Cc2ccccc2C1=O (configuration not stated),34.6 µM (inactive),20 µM (inactive),36.8 µM (inactive),26.6 µM (inactive),18.7 µM (inactive),28.6 µM (inactive),16.4 µM (inactive),23.7 µM (inactive),27.7 µM (inactive),17.3 µM (inactive),–,24 µM (inactive),45.2 µM (inactive),15.1 µM (inactive),30.8 µM (inactive),35.1 µM (inactive),19.7 µM (inactive),–,19.1 µM (inactive)
C=CCNC(NCC=C)=C(C(Cl)=C(Cl)Cl)[N+](=O)[O-],> 100 µM (inactive),32 µM (inactive),–,65.5 µM (inactive),16.4 µM (inactive),30.5 µM (inactive),32.5 µM (inactive),> 100 µM (inactive),59.2 µM (inactive),34.1 µM (inactive),> 100 µM (inactive),16.7 µM (inactive),78.3 µM (inactive),–,26.2 µM (inactive),25.4 µM (inactive),> 100 µM (inactive),–,–
Nc1nncc2[nH]cnc12,> 64.3 µM (inactive),> 74.3 µM (inactive),> 50.1 µM (inactive),44.1 µM (inactive),–,> 75.9 µM (inactive),49.5 µM (inactive),44.7 µM (inactive),> 79.4 µM (inactive),–,> 62.2 µM (inactive),7.01 µM (inactive),> 62.5 µM (inactive),24.2 µM (inactive),> 100 µM (inactive),> 78.7 µM (inactive),> 100 µM (inactive),> 100 µM (inactive),15 µM (inactive)
Cc1c[nH]c(C(=O)O)c1-c1ccc2c(-c3ccccc3)nc3ccccc3n12,48.3 µM (inactive),23.2 µM (inactive),29.2 µM (inactive),20 µM (inactive),–,37.2 µM (inactive),19 µM (inactive),33.7 µM (inactive),30.7 µM (inactive),35.4 µM (inactive),13.9 µM (inactive),41.5 µM (inactive),36.7 µM (inactive),30.5 µM (inactive),16.4 µM (inactive),18.6 µM (inactive),20.3 µM (inactive),20.9 µM (inactive),–
CC1(C(=O)O)CCCC1C(=O)O (configuration not stated),> 100 µM (inactive),–,> 100 µM (inactive),> 100 µM (inactive),> 100 µM (inactive),> 100 µM (inactive),> 100 µM (inactive),> 100 µM (inactive),> 100 µM (inactive),> 100 µM (inactive),> 100 µM (inactive),> 100 µM (inactive),> 100 µM (inactive),> 100 µM (inactive),> 100 µM (inactive),> 100 µM (inactive),> 100 µM (inactive),> 100 µM (inactive),> 100 µM (inactive)
Cc1cn(C2C=CC(COP(=O)(OCc3ccc([N+](=O)[O-])o3)N(C)CCCCCl)O2)c(=O)[nH]c1=O (configuration not stated),5.58 µM (inactive),1.8 µM (inactive),16.6 µM (inactive),6.68 µM (inactive),1.79 µM (inactive),1.57 µM (inactive),2.63 µM (inactive),10.9 µM (inactive),10.8 µM (inactive),3.05 µM (inactive),–,2.08 µM (inactive),13.3 µM (inactive),1.22 µM (inactive),1.75 µM (inactive),2.17 µM (inactive),10.6 µM (inactive),1.85 µM (inactive),9.31 µM (inactive)
Clc1ccc(/N=C2\c3ccccc3CN2c2ccc(Cl)cc2)cc1,> 100 µM (inactive),> 100 µM (inactive),87.5 µM (inactive),77.8 µM (inactive),–,0.219 µM (active),30.1 µM (inactive),29.9 µM (inactive),> 100 µM (inactive),89.5 µM (inactive),> 100 µM (inactive),0.119 µM (active),11.6 µM (inactive),1.43 µM (inactive),52.7 µM (inactive),> 100 µM (inactive),> 100 µM (inactive),63.2 µM (inactive),–
O=C(C/N=C(\CN(c1ccccc1)c1ccccc1)Oc1ccc(Cl)cc1Cl)n1ccnc1,> 100 µM (inactive),> 100 µM (inactive),> 100 µM (inactive),> 100 µM (inactive),> 100 µM (inactive),> 100 µM (inactive),> 100 µM (inactive),> 100 µM (inactive),> 100 µM (inactive),> 100 µM (inactive),> 100 µM (inactive),> 100 µM (inactive),> 100 µM (inactive),> 100 µM (inactive),> 100 µM (inactive),> 100 µM (inactive),> 100 µM (inactive),–,–
Cc1ccc(Cc2nnc(S)[nH]2)cc1,> 100 µM (inactive),> 100 µM (inactive),> 100 µM (inactive),79.1 µM (inactive),> 100 µM (inactive),40.8 µM (inactive),> 100 µM (inactive),84.7 µM (inactive),> 100 µM (inactive),81.3 µM (inactive),> 100 µM (inactive),94.8 µM (inactive),70.8 µM (inactive),74.6 µM (inactive),> 100 µM (inactive),47.2 µM (inactive),> 100 µM (inactive),–,25.8 µM (inactive)
